From PMC7044277 (Nature Communications, 2020)
Where “and” joins values, the source holds several entries; their conditions need not be identical. Equal entries are not always repeated.

Columns and labels:
Format in all cases: cell-based
320 non-olfactory GPCRs [1] = biological target: T1, 320 non-olfactory GPCRs (Homo sapiens, UniProt P30518)
T1 construct: expressed in transfected cells; host or cells: HTLA cells

320 non-olfactory GPCRs [2] = biological target: T2, 320 non-olfactory GPCRs (Homo sapiens, UniProt P43088); details: receptor PTGFR; replicate values, Fig_4g
T2 construct: expressed in transfected cells; host or cells: HTLA cells
T2 sequence (P43088 whole entry): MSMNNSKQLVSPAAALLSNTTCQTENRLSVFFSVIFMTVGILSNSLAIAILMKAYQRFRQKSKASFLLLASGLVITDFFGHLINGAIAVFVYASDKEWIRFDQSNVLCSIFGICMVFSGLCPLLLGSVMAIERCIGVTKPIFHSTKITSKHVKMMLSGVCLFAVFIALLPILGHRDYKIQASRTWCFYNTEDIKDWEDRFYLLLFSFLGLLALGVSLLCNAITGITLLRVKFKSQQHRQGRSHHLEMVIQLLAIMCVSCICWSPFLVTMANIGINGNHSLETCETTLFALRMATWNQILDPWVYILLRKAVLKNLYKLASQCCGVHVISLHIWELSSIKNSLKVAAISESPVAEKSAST

320 non-olfactory GPCRs [3] = biological target: 320 non-olfactory GPCRs (Homo sapiens, UniProt Q96PE1)
320 non-olfactory GPCRs (Homo sapiens, UniProt Q96PE1), sequence (Q96PE1 34-1338): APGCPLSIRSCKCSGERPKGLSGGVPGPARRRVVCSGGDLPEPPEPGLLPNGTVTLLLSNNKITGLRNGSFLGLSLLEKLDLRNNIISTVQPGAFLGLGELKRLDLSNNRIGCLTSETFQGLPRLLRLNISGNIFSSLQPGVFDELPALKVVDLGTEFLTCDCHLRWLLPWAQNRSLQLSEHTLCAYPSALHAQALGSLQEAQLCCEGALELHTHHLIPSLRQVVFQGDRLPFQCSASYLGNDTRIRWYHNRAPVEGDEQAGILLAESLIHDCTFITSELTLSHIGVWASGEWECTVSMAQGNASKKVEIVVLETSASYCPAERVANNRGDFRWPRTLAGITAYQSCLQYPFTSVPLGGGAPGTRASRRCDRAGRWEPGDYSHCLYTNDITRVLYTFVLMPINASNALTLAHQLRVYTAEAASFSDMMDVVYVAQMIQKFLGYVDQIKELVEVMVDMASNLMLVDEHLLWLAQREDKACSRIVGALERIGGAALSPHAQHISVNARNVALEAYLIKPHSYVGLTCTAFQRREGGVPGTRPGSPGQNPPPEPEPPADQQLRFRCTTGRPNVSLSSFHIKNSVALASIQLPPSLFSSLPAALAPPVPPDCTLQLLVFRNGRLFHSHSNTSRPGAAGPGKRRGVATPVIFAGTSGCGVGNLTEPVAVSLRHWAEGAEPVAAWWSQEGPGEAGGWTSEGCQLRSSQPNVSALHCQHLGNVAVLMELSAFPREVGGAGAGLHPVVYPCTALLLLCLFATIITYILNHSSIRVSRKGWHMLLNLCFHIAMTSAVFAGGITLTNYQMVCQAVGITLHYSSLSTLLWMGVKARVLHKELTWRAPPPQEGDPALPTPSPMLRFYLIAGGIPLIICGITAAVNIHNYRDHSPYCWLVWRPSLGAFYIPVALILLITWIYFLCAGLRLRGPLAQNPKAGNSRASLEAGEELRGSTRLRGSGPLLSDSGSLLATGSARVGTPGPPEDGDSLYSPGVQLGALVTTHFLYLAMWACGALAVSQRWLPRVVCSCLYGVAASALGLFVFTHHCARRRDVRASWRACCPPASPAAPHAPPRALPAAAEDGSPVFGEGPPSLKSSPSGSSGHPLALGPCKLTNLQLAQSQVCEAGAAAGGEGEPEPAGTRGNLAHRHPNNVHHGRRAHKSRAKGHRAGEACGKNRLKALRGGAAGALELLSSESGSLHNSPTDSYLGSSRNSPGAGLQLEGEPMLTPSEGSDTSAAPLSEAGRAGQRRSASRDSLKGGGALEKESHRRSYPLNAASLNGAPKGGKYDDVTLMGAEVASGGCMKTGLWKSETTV

320 non-olfactory GPCRs [4] = biological target: 320 non-olfactory GPCRs (Homo sapiens, UniProt P30989); details: receptor NTSR1; replicate values, Fig_4g
320 non-olfactory GPCRs (Homo sapiens, UniProt P30989), sequence (P30989 whole entry): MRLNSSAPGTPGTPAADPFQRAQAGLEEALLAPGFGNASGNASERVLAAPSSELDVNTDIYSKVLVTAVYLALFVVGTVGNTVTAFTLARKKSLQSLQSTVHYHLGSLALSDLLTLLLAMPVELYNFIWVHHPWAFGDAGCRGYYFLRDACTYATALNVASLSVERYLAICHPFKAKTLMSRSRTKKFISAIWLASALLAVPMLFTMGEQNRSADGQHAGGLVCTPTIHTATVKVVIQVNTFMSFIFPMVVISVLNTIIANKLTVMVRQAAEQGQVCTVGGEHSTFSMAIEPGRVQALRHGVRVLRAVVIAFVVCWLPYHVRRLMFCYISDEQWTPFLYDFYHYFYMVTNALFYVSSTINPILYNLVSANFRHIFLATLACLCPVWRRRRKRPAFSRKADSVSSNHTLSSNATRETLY
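For Fold of Basal in this document: compound tested at 1 µM final concentration.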
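For GPCRome agonism screen response in this document: fold over basal response of each receptor without drug.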

T1 sequence (P30518 whole entry): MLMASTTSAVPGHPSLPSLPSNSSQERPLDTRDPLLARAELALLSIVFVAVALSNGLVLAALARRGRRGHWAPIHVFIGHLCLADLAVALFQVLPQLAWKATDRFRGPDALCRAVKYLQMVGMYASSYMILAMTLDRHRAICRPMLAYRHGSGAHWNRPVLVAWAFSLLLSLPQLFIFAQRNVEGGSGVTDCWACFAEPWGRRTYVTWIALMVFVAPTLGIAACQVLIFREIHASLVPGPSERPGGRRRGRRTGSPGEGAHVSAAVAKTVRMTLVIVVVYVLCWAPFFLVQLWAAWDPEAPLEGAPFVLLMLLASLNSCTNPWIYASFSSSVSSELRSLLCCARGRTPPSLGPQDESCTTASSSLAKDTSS

SMILES: CCOc1cccc2cc(C(C)NCC3(O)CCCCC3)oc12 (stereo not shown) [O4LE6]
- Fold of Basal (320 non-olfactory GPCRs [1]): 1.01 and 0.8337 and 0.9883 and 1.294
- GPCRome agonism screen response (320 non-olfactory GPCRs [2]): 0.453 and 1.129 and 0.3537 and 0.6778
- Fold of Basal (320 non-olfactory GPCRs [3]): 1.7314 and 1.927 and 1.697 and 1.27
- GPCRome agonism screen response (320 non-olfactory GPCRs [4]): 0.7939 and 0.7425 and 1.49 and 2.039
